According to DBAASP:
Values after ≈ are worked out from the molar mass of the structure shown. Values joined by “and” are separate entries in the source; they are usually repeats but may differ in a detail not shown here. Equal entries are not always repeated. Values belong to the compound of their own block, whether it stands above or below them.

Columns and labels:
Test in all cases: ≥ marks a high value that may be exact or a test limit, other limits are often not marked, values filed in µg/mL are converted to µM
[1] = tested on: Bacillus subtilis IAM 1071
[2] = tested on: Escherichia coli K-12 W3110
[3] = tested on: Micrococcus luteus IAM 1056
[4] = tested on: Aeromonas hydrophila IAM 12460
Bacillus cereus IAM 1110 = tested on: Bacillus cereus IAM 1110
[5] = tested on: Proteus vulgaris IAM 12542
[6] = tested on: Streptococcus sanguinis NY101
[7] = tested on: Streptococcus sanguinis ATCC 49295
[8] = tested on: Streptococcus mutans UA159
[9] = tested on: Streptococcus mutans comD
[10] = tested on: Streptococcus gordonii DL1
Streptococcus mutans T8 = tested on: Streptococcus mutans T8
[11] = tested on: Streptococcus mutans GS-5
[12] = tested on: Streptococcus gordonii ATCC 10558
[13] = tested on: Streptococcus mutans ATCC 25175
[14] = tested on: Staphylococcus aureus ATCC 25923
[15] = tested on: Staphylococcus aureus S908
[16] = tested on: Staphylococcus aureus 145/08
[17] = tested on: Staphylococcus aureus T4/6
[18] = tested on: Klebsiella pneumoniae ATCC 700603
[19] = tested on: Acinetobacter baumannii I NM8
[20] = tested on: Staphylococcus aureus 274/08
[21] = tested on: Pseudomonas aeruginosa ATCC 27853
[22] = tested on: Escherichia coli ATCC 25726
[23] = tested on: Staphylococcus aureus V4180
[24] = tested on: Candida albicans ATCC 90028
[25] = tested on: Staphylococcus aureus 127/08

MIC [1]: 2.12 µM
MIC [2]: 4.24 µM
MIC [3]: 0.0665 µM
MIC [4]: 2.12 µM
MIC (Bacillus cereus IAM 1110): 4.24 µM
MIC [5]: 2.12 µM
SMILES: CC[C@H](C)[C@@H]1NC(=O)CNC(=O)[C@@H]2CSSC[C@@H]3NC(=O)[C@H](C(C)C)NC(=O)[C@H](CCCN=C(N)N)NC(=O)[C@H](CCCCN)NC(=O)[C@H](CCCCN)NC(=O)[C@H](CC(N)=O)NC(=O)[C@H](CSSC[C@H](NC(=O)[C@@H](NC(=O)[C@@H](N)Cc4ccccc4)[C@@H](C)O)C(=O)N[C@@H](CC(=O)O)C(=O)N[C@@H](C(C)C)C(=O)N[C@@H](CC(C)C)C(=O)N[C@@H](CO)C(=O)N[C@@H](C(C)C)C(=O)N[C@@H](CCC(=O)O)C(=O)N[C@@H](C)C(=O)N[C@@H](CCCCN)C(=O)NCC(=O)N[C@@H](C(C)C)C(=O)N[C@@H](CCCCN)C(=O)N[C@@H](CC(C)C)C(=O)N[C@@H](CC(N)=O)C(=O)N[C@@H](Cc4cnc[nH]4)C(=O)N[C@@H](C)C(=O)N[C@@H](C)C(=O)N2)NC(=O)[C@H](Cc2ccc(O)cc2)NC(=O)CNC(=O)CNC(=O)[C@H]([C@@H](C)O)NC(=O)[C@H](CCCN=C(N)N)NC(=O)[C@H](CCCN=C(N)N)NC(=O)[C@H](CCCN=C(N)N)NC(=O)[C@H](Cc2ccccc2)NC(=O)[C@H](CC(C)C)NC(=O)[C@H](CSSC[C@@H](C(=O)N[C@@H](CCCN=C(N)N)C(=O)O)NC(=O)[C@H]([C@@H](C)CC)NC3=O)NC(=O)[C@H](Cc2cnc[nH]2)NC1=O [FTCDVLSVEAKGVKLNHAACGIHCLFRRRTGGYCNKKRVCICR]

MIC [6]: ≥ 60 µM
MIC [7]: ≥ 233 µM
MIC [8]: ≥ 233 µM
MIC [9]: ≥ 60 µM
MIC [10]: ≥ 60 µM
MIC (Streptococcus mutans T8): ≥ 60 µM
MIC [11]: ≥ 233 µM
MIC [12]: ≥ 233 µM
MIC [13]: ≥ 60 µM
SMILES: CC(C)C[C@H](NC(=O)[C@H](CCCN=C(N)N)NC(=O)[C@H](Cc1ccccc1)NC(=O)[C@H](Cc1ccccc1)NC(=O)[C@@H](N)[C@@H](C)O)C(=O)N[C@@H](Cc1ccccc1)C(=O)N[C@@H](CC(N)=O)C(=O)N[C@@H](CCCN=C(N)N)C(=O)O [TFFRLFNR]

MIC [14]: 2.5 µM and 6 µM
MIC [15]: 2.5 µM (≈ 7.14 µg/mL)
MIC [16]: 2.5 µM (≈ 7.14 µg/mL)
MIC [17]: 2.5 µM (≈ 7.14 µg/mL)
MIC [18]: 50 µM (≈ 143 µg/mL)
MIC [19]: 6 µM (≈ 17.1 µg/mL)
MIC [20]: 2.5 µM (≈ 7.14 µg/mL)
MIC [21]: 25 µM (≈ 71.4 µg/mL)
MIC [22]: ≥ 50 µM
MIC [23]: 2.5 µM (≈ 7.14 µg/mL)
MIC [24]: 12.5 µM (≈ 35.7 µg/mL)
MIC [25]: 2.5 µM (≈ 7.14 µg/mL)
SMILES: CC(C)C[C@H](NC(=O)CNC(=O)[C@H](CC(C)C)NC(=O)[C@H](CCCCN)NC(=O)[C@H](CC(C)C)NC(=O)[C@H](CC(C)C)NC(=O)[C@@H]1CCCN1C(=O)CNC(=O)[C@H](CC(C)C)NC(=O)[C@H](Cc1ccccc1)NC(=O)CN)C(=O)N[C@@H](CCCCN)C(=O)NCC(=O)N[C@@H](C)C(=O)N[C@@H](C)C(=O)N[C@@H](CCCCN)C(=O)N[C@@H](CC(C)C)C(=O)N[C@@H](CC(C)C)C(=O)N1CCC[C@H]1C(=O)N[C@@H](CCC(N)=O)C(=O)N[C@@H](CC(C)C)C(=O)N[C@@H](CC(C)C)C(=O)N1CCC[C@H]1C(=O)N[C@@H](CO)C(=O)N[C@@H](CCCN=C(N)N)C(=O)N[C@@H](CCC(N)=O)C(=O)N[C@@H](CCC(N)=O)C(=O)O [GFLGPLLKLGLKGAAKLLPQLLPSRQQ]
